One assay has as its target ER (Homo sapiens (Human), UniProt P03372). Description: In-cell western blot analysis of relative ER percentage (Compounds B1-B278). Format: cell-based. Conditions: ER degradation, 16 hours, read-out: ICW DC50. Put shortly: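 In-cell western: after 16 h compound exposure (0.5% DMSO final), fixed and permeabilized cells are probed with anti-ER plus anti-GAPDH and near-infrared secondaries. Relative ER percentage compares treated wells against untreated and DMSO wells taken as 100%; seeding 40,000 or 10,000 cells/well.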

The nature of assay [1]: Cell growth assay (WST-8) (Compounds B1-B278). The class given is cell-based. Conditions: 96 h; T47D cell line; WST-8, 4 days; read-out: Cell Growth Inhibition in T47D cell line IC50. Put shortly: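 Read-out is WST-8 absorbance at 450 nm (2.5 h, 37° C) as a fraction of vehicle control, from three separate repeats. Compound exposure lasted 4 days, starting one day after plating 1500 cells/well.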
(Tetrazolium assays rely on reduction of a dye to a coloured formazan, in cell work by metabolically active cells.)

ER, sequence (P03372 whole entry): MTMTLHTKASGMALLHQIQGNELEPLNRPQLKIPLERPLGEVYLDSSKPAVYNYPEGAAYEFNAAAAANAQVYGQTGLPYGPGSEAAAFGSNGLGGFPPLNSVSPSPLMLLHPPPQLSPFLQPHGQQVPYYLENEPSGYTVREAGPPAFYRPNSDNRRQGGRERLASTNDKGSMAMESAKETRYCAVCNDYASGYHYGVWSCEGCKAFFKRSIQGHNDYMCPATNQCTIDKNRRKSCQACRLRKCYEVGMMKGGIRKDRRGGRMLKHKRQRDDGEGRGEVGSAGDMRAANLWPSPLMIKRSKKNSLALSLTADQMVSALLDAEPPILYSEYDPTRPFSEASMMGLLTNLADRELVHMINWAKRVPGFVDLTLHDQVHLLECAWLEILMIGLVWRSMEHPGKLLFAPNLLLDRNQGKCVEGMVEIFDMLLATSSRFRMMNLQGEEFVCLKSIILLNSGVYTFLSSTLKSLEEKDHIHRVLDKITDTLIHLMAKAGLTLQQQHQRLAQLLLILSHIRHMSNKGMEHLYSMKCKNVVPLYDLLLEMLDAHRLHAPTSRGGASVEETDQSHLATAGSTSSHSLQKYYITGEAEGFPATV

For `C[C@@H]1Cc2c([nH]c3ccccc23)[C@@H](c2cnc(N3CC4(CCC(CN5CCN6c7ccc8c(c7OC[C@H]6C5)CN(C5CCC(=O)NC5=O)C8=O)CC4)C3)nc2)N1CC(F)(F)CO` (stereo partly drawn) [Compound B154, 3-((R)-7-((2-(5-((1R,3R)-2-(2,2-difluoro-3-hydroxypropyl)-3-methyl-2,3,4,9-tetrahydro-1H-pyrido[3,4-b]indol-1-yl)pyrimidin-2-yl)-2-azaspiro[3.5]nonan-7-yl)methyl)-1-oxo-1,3,5,5a,6,7,8,9-octahydro-2H-pyrazino[1′,2′:4,5][1,4]oxazino[2,3-e]isoindol-2-yl)piperidine-2,6-dione], the DC50 (usually the concentration giving 50% degradation) on ER was 10 to 100 nM. Moreover, the IC50 – broadly, the concentration needed to halve the response being measured – in assay [1] is 1 to 10 nM.
For `C[C@@H]1Cc2c([nH]c3ccccc23)[C@@H](c2cnc(N3CCC4(CC3)CC(N3CCN5c6ccc7c(c6OC[C@H]5C3)CN(C3CCC(=O)NC3=O)C7=O)C4)nc2)N1CC(F)F` (stereo partly drawn) [Compound B155, 3-((R)-7-(7-(5-((1R,3R)-2-(2,2-difluoroethyl)-3-methyl-2,3,4,9-tetrahydro-1H-pyrido[3,4-b]indol-1-yl)pyrimidin-2-yl)-7-azaspiro[3.5]nonan-2-yl)-1-oxo-1,3,5,5a,6,7,8,9-octahydro-2H-pyrazino[1′,2′:4,5][1,4]oxazino[2,3-e]isoindol-2-yl)piperidine-2,6-dione], in that order: over 100 nM and 1 to 10 nM.
For `C[C@@H]1Cc2c([nH]c3ccccc23)[C@@H](c2cnc(N3CC4(CCC(N5CCN6c7ccc8c(c7OC[C@H]6C5)CN(C5CCC(=O)NC5=O)C8=O)CC4)C3)nc2)N1CC(F)F` (stereo partly drawn) [Compound B156, 3-((R)-7-(2-(5-((1R,3R)-2-(2,2-difluoroethyl)-3-methyl-2,3,4,9-tetrahydro-1H-pyrido[3,4-b]indol-1-yl)pyrimidin-2-yl)-2-azaspiro[3.5]nonan-7-yl)-1-oxo-1,3,5,5a,6,7,8,9-octahydro-2H-pyrazino[1′,2′:4,5][1,4]oxazino[2,3-e]isoindol-2-yl)piperidine-2,6-dione], in that order: over 100 nM and over 10 nM.
In the case of `C[C@@H]1Cc2c([nH]c3ccccc23)[C@@H](c2cnc(N3CCC4(CC(CN5CCN6c7ccc8c(c7OC[C@H]6C5)CN(C5CCC(=O)NC5=O)C8=O)C4)C3)nc2)N1CC(F)F` (stereo partly drawn) [Compound B157, 3-((R)-7-((6-(5-((1R,3R)-2-(2,2-difluoroethyl)-3-methyl-2,3,4,9-tetrahydro-1H-pyrido[3,4-b]indol-1-yl)pyrimidin-2-yl)-6-azaspiro[3.4]octan-2-yl)methyl)-1-oxo-1,3,5,5a,6,7,8,9-octahydro-2H-pyrazino[1′,2′:4,5][1,4]oxazino[2,3-e]isoindol-2-yl)piperidine-2,6-dione], the DC50 on ER was over 100 nM. In addition, the IC50 in assay [1] was 1 to 10 nM.
`C[C@@H]1Cc2c([nH]c3ccccc23)[C@@H](c2cnc(N3CC4(CCC(N5CCN6c7ccc8c(c7OC[C@H]6C5)CN(C5CCC(=O)NC5=O)C8=O)CC4)C3)nc2)N1CC(F)(F)CO` (stereo partly drawn) [Compound B158, 3-((R)-7-(2-(5-((1R,3R)-2-(2,2-difluoro-3-hydroxypropyl)-3-methyl-2,3,4,9-tetrahydro-1H-pyrido[3,4-b]indol-1-yl)pyrimidin-2-yl)-2-azaspiro[3.5]nonan-7-yl)-1-oxo-1,3,5,5a,6,7,8,9-octahydro-2H-pyrazino[1′,2′:4,5][1,4]oxazino[2,3-e]isoindol-2-yl)piperidine-2,6-dione]: at ER, the DC50 is over 100 nM. In addition, in assay [1], the half-maximal inhibitory concentration (IC50) was under 1 nM.
For `C[C@@H]1Cc2c([nH]c3ccccc23)[C@@H](c2cnc(N3CCC(CCN4CCN5c6ccc7c(c6OC[C@H]5C4)CN(C4CCC(=O)NC4=O)C7=O)CC3)nc2)N1CC(F)(F)CO` (stereo partly drawn) [Compound B159, 3-((R)-7-(2-(1-(5-((1R,3R)-2-(2,2-difluoro-3-hydroxypropyl)-3-methyl-2,3,4,9-tetrahydro-1H-pyrido[3,4-b]indol-1-yl)pyrimidin-2-yl)piperidin-4-yl)ethyl)-1-oxo-1,3,5,5a,6,7,8,9-octahydro-2H-pyrazino[1′,2′:4,5][1,4]oxazino[2,3-e]isoindol-2-yl)piperidine-2,6-dione], in that order: over 100 nM and over 10 nM.
For the compound `C[C@@H]1Cc2c([nH]c3ccccc23)[C@@H](c2cnc(N3CCC(CCN4CCN5c6ccc7c(c6OC[C@H]5C4)CN(C4CCC(=O)NC4=O)C7=O)CC3)nc2)N1CC(F)F` (stereo partly drawn) [Compound B160, 3-((R)-7-(2-(1-(5-((1R,3R)-2-(2,2-difluoroethyl)-3-methyl-2,3,4,9-tetrahydro-1H-pyrido[3,4-b]indol-1-yl)pyrimidin-2-yl)piperidin-4-yl)ethyl)-1-oxo-1,3,5,5a,6,7,8,9-octahydro-2H-pyrazino[1′,2′:4,5][1,4]oxazino[2,3-e]isoindol-2-yl)piperidine-2,6-dione], the DC50 at ER is over 100 nM. The IC50 in assay [1] was 1 to 10 nM.
The like results for `C[C@@H]1Cc2c([nH]c3ccccc23)[C@@H](c2cnc(N3CCC4(CCC(CN5CCN6c7ccc8c(c7OC[C@H]6C5)CN(C5CCC(=O)NC5=O)C8=O)CC4)CC3)nc2)N1CC(F)F` (stereo partly drawn) [Compound B161, 3-((R)-7-((3-(5-((1R,3R)-2-(2,2-difluoroethyl)-3-methyl-2,3,4,9-tetrahydro-1H-pyrido[3,4-b]indol-1-yl)pyrimidin-2-yl)-3-azaspiro[5.5]undecan-9-yl)methyl)-1-oxo-1,3,5,5a,6,7,8,9-octahydro-2H-pyrazino[1′,2′:4,5][1,4]oxazino[2,3-e]isoindol-2-yl)piperidine-2,6-dione] were, in that order, over 100 nM and over 10 nM.
For `C[C@@H]1Cc2c([nH]c3ccccc23)[C@@H](c2cnc(N3CCC4(CCC(CN5CCN6c7ccc8c(c7OC[C@H]6C5)CN(C5CCC(=O)NC5=O)C8=O)CC4)CC3)nc2)N1CC(C)(C)F` (stereo partly drawn) [Compound B162, 3-((R)-7-((3-(5-((1R,3R)-2-(2-fluoro-2-methylpropyl)-3-methyl-2,3,4,9-tetrahydro-1H-pyrido[3,4-b]indol-1-yl)pyrimidin-2-yl)-3-azaspiro[5.5]undecan-9-yl)methyl)-1-oxo-1,3,5,5a,6,7,8,9-octahydro-2H-pyrazino[1′,2′:4,5][1,4]oxazino[2,3-e]isoindol-2-yl)piperidine-2,6-dione], in that order: over 100 nM and over 10 nM.
`C[C@@H]1Cc2c([nH]c3ccccc23)[C@@H](c2cnc(N3CCC4(CCC(N5CCN6c7ccc8c(c7OC[C@H]6C5)CN(C5CCC(=O)NC5=O)C8=O)CC4)CC3)nc2)N1CC(F)F` (stereo partly drawn) [Compound B163, 3-((R)-7-(3-(5-((1R,3R)-2-(2,2-difluoroethyl)-3-methyl-2,3,4,9-tetrahydro-1H-pyrido[3,4-b]indol-1-yl)pyrimidin-2-yl)-3-azaspiro[5.5]undecan-9-yl)-1-oxo-1,3,5,5a,6,7,8,9-octahydro-2H-pyrazino[1′,2′:4,5][1,4]oxazino[2,3-e]isoindol-2-yl)piperidine-2,6-dione]: the 50% degradation concentration (DC50) at ER was over 100 nM. Also, the IC50 in assay [1] is over 10 nM.
For `C[C@@H]1Cc2c([nH]c3ccccc23)[C@@H](c2cnc(N3CCC4(CCC(N5CCN6c7ccc8c(c7OC[C@H]6C5)CN(C5CCC(=O)NC5=O)C8=O)CC4)CC3)nc2)N1CC(C)(C)F` (stereo partly drawn) [Compound B164, 3-((R)-7-(3-(5-((1R,3R)-2-(2-fluoro-2-methylpropyl)-3-methyl-2,3,4,9-tetrahydro-1H-pyrido[3,4-b]indol-1-yl)pyrimidin-2-yl)-3-azaspiro[5.5]undecan-9-yl)-1-oxo-1,3,5,5a,6,7,8,9-octahydro-2H-pyrazino[1′,2′:4,5][1,4]oxazino[2,3-e]isoindol-2-yl)piperidine-2,6-dione], in that order: over 100 nM and 1 to 10 nM.
For `C[C@@H]1Cc2c([nH]c3ccccc23)[C@@H](c2cnc(N3CCC4(CC3)CC(N3CCN5c6ccc7c(c6OC[C@H]5C3)CN(C3CCC(=O)NC3=O)C7=O)CO4)nc2)N1CC(C)(C)F` (stereo partly drawn) [Compound B165, 3-((5aR)-7-(8-(5-((1R,3R)-2-(2-fluoro-2-methylpropyl)-3-methyl-2,3,4,9-tetrahydro-1H-pyrido[3,4-b]indol-1-yl)pyrimidin-2-yl)-1-oxa-8-azaspiro[4.5]decan-3-yl)-1-oxo-1,3,5,5a,6,7,8,9-octahydro-2H-pyrazino[1′,2′:4,5][1,4]oxazino[2,3-e]isoindol-2-yl)piperidine-2,6-dione], in that order: 10 to 100 nM and 1 to 10 nM.
The like results for `C[C@@H]1Cc2c([nH]c3ccccc23)[C@@H](c2cnc(N3CCC4(CC3)CC(N3CCN5c6ccc7c(c6OC[C@H]5C3)CN(C3CCC(=O)NC3=O)C7=O)CO4)nc2)N1CC(F)F` (stereo partly drawn) [Compound B166, 3-((5aR)-7-(8-(5-((1R,3R)-2-(2,2-difluoroethyl)-3-methyl-2,3,4,9-tetrahydro-1H-pyrido[3,4-b]indol-1-yl)pyrimidin-2-yl)-1-oxa-8-azaspiro[4.5]dccan-3-yl)-1-oxo-1,3,5,5a,6,7,8,9-octahydro-2H-pyrazino[1′,2′:4,5][1,4]oxazino[2,3-e]isoindol-2-yl)piperidine-2,6-dione] were, in that order, 10 to 100 nM and 1 to 10 nM.
On to `C[C@@H]1Cc2c([nH]c3ccccc23)[C@@H](c2cnc(N3CC4(CCC(CN5Cc6cc7c(cc6C5)C(=O)N(C5CCC(=O)NC5=O)C7=O)CC4)C3)nc2)N1CC(F)(F)CO` (stereo partly drawn) [Compound B167, 6-((2-(5-((1R,3R)-2-(2,2-difluoro-3-hydroxypropyl)-3-methyl-2,3,4,9-tetrahydro-1H-pyrido[3,4-b]indol-1-yl)pyrimidin-2-yl)-2-azaspiro[3.5]nonan-7-yl)methyl)-2-(2,6-dioxopiperidin-3-yl)-6,7-dihydropyrrolo[3,4-f]isoindole-1,3(2H,5H)-dione], for which the DC50 on ER is over 100 nM. In assay [1], the IC50 was over 10 nM.

The values are drawn from patent publication US20260007681A1, “INDOLE DERIVATIVES AS ESTROGEN RECEPTOR DEGRADERS” (REGENTS OF THE UNIVERSITY OF MICHIGAN, priority 2022, published 2026).
